Patent US7008905B2, “Method of combating undesired plant growth on cereals” (BASF Aktiengesellschaft, priority 2000, dated 2006)

Key:
Assay type in all cases: in vivo
Alopecurus myosuroides = assay: Pre-emergence test, weed control; conditions: 3 weeks after treatment, rating 0-100 (100=death), Table 3
Experimental: (§1) The pre-emergence tests involve spraying a liquid formulation of the compound onto the soil in which the seeds of the plant species mentioned above has recently been sown.
(§2) The soil used in the tests is a prepared horticultural loam. The formulations used in the tests are prepared from solutions of the test compounds in acetone containing 0.4% by weight of an alkylphenol/ethylene oxide condensate available under the trade mark TRITON X-155.
(§3) In these tests untreated sown soil is used as control. The herbicidal effects of the test compounds are assessed visually three weeks after spraying the soil and are recorded an a 0 to 100 scale. A rating 0 indicates growth as untreated control, a rating 100 indicates death. An increase of 10 unit an the linear scale approximates to a 10% increase in the level of effect. The results of the assessment are set out in Tables 1 to 4.

Apera spica-venti = assay: Pre-emergence test, weed control; conditions: 3 weeks after treatment, rating 0-100 (100=death), Table 3
Experimental: as §1, §2, §3

Galium aparine = assay: Pre-emergence test, weed control; conditions: 3 weeks after treatment, rating 0-100 (100=death), Table 3
Experimental: as §1, §2, §3

Lamium purpureum = assay: Pre-emergence test, weed control; conditions: 3 weeks after treatment, rating 0-100 (100=death), Table 3
Experimental: as §1, §2, §3

Lolium perenne = assay: Pre-emergence test, weed control; conditions: 3 weeks after treatment, rating 0-100 (100=death), Table 3
Experimental: as §1, §2, §3

Matricaria inodora = assay: Pre-emergence test, weed control; conditions: 3 weeks after treatment, rating 0-100 (100=death), Table 3
Experimental: as §1, §2, §3

Poa annua = assay: Pre-emergence test, weed control; conditions: 3 weeks after treatment, rating 0-100 (100=death), Table 3
Experimental: as §1, §2, §3

Setaria viridis = assay: Pre-emergence test, weed control; conditions: 3 weeks after treatment, rating 0-100 (100=death), Table 3
Experimental: as §1, §2, §3

Stellaria media = assay: Pre-emergence test, weed control; conditions: 3 weeks after treatment, rating 0-100 (100=death), Table 3
Experimental: as §1, §2, §3

Veronica persica = assay: Pre-emergence test, weed control; conditions: 3 weeks after treatment, rating 0-100 (100=death), Table 3
Experimental: as §1, §2, §3

PAPRH = assay: Pre-emergence test, weed control; conditions: 3 weeks after treatment, rating 0-100 (100=death), Table 3
Experimental: as §1, §2
as §3, with “These acetone solutions are diluted with water and the resulting formulations applied at dosage levels corresponding to 15 g, 30 g, 60 g, 120 g or 240 g of active material per hectare in a volume equivalent to 900 liters per hectare. In” for “In”

VIOAR = assay: Pre-emergence test, weed control; conditions: 3 weeks after treatment, rating 0-100 (100=death), Table 3
Experimental: as §1, §2
as §3, with “These acetone solutions are diluted with water and the resulting formulations applied at dosage levels corresponding to 15 g, 30 g, 60 g, 120 g or 240 g of active material per hectare in a volume equivalent to 900 liters per hectare. In” for “In”

[1] = test system: Triticum aestivum variety “Kanzler”; assay: Pre-emergence test, selectivity; conditions: 3 weeks after treatment, rating 0-100 (100=death), Table 4
Experimental: as §1, §2
as §3, with “These acetone solutions are diluted with water and the resulting formulations applied at dosage levels corresponding to 15 g, 30 g, 60 g, 120 g or 240 g of active material per hectare in a volume equivalent to 900 liters per hectare. In” for “In”

[2] = test system: Triticum aestivum variety “Monopol”; assay: Pre-emergence test, selectivity; conditions: 3 weeks after treatment, rating 0-100 (100=death), Table 4
Experimental: as §1, §2
as §3, with “These acetone solutions are diluted with water and the resulting formulations applied at dosage levels corresponding to 15 g, 30 g, 60 g, 120 g or 240 g of active material per hectare in a volume equivalent to 900 liters per hectare. In” for “In”

wheat = assay: Pre-emergence test, tolerance in wheat
Experimental: as §1, §2
as §3, with “These acetone solutions are diluted with water and the resulting formulations applied at dosage levels corresponding to 15 g, 30 g, 60 g, 120 g or 240 g of active material per hectare in a volume equivalent to 900 liters per hectare. In” for “In”

[3] = test system: grasses and broadleaf weeds; assay: Pre-emergence test, overall weed control
Experimental: as §1, §2
as §3, with “These acetone solutions are diluted with water and the resulting formulations applied at dosage levels corresponding to 15 g, 30 g, 60 g, 120 g or 240 g of active material per hectare in a volume equivalent to 900 liters per hectare. In” for “In”

Structure (SMILES): FC(F)(F)c1ccc(-c2nccc(Oc3ccnc(Cl)c3)n2)cc1 [CTP, 4-(2-chloropyrid-4-yloxy)-2-(4-trifluoromethyl-phenyl)pyrimidine]
- ALOMY weed control rating (Alopecurus myosuroides; 0.030 kg/ha): 15
- ALOMY weed control rating (Alopecurus myosuroides; 0.060 kg/ha): 35
- ALOMY weed control rating (Alopecurus myosuroides; 0.120 kg/ha): 99
- ALOMY weed control rating (Alopecurus myosuroides; 0.240 kg/ha): 100
- APESV weed control rating (Apera spica-venti; 0.030 kg/ha): 100
- APESV weed control rating (Apera spica-venti; 0.060 kg/ha): 100
- APESV weed control rating (Apera spica-venti; 0.120 kg/ha): 100
- APESV weed control rating (Apera spica-venti; 0.240 kg/ha): 100
- GALAP weed control rating (Galium aparine; 0.030 kg/ha): 10
- GALAP weed control rating (Galium aparine; 0.060 kg/ha): 65
- GALAP weed control rating (Galium aparine; 0.120 kg/ha): 93
- GALAP weed control rating (Galium aparine; 0.240 kg/ha): 95
- LAMPU weed control rating (Lamium purpureum; 0.030 kg/ha): 90
- LAMPU weed control rating (Lamium purpureum; 0.060 kg/ha): 100
- LAMPU weed control rating (Lamium purpureum; 0.120 kg/ha): 100
- LAMPU weed control rating (Lamium purpureum; 0.240 kg/ha): 100
- LOLPE weed control rating (Lolium perenne; 0.030 kg/ha): 93
- LOLPE weed control rating (Lolium perenne; 0.060 kg/ha): 95
- LOLPE weed control rating (Lolium perenne; 0.120 kg/ha): 98
- LOLPE weed control rating (Lolium perenne; 0.240 kg/ha): 100
- MATIN weed control rating (Matricaria inodora; 0.030 kg/ha): 98
- MATIN weed control rating (Matricaria inodora; 0.060 kg/ha): 99
- MATIN weed control rating (Matricaria inodora; 0.120 kg/ha): 99
- MATIN weed control rating (Matricaria inodora; 0.240 kg/ha): 100
- POAAN weed control rating (Poa annua; 0.030 kg/ha): 100
- POAAN weed control rating (Poa annua; 0.060 kg/ha): 100
- POAAN weed control rating (Poa annua; 0.120 kg/ha): 100
- POAAN weed control rating (Poa annua; 0.240 kg/ha): 100
- SETVI weed control rating (Setaria viridis; 0.030 kg/ha): 98
- SETVI weed control rating (Setaria viridis; 0.060 kg/ha): 100
- SETVI weed control rating (Setaria viridis; 0.120 kg/ha): 100
- SETVI weed control rating (Setaria viridis; 0.240 kg/ha): 100
- STEME weed control rating (Stellaria media; 0.030 kg/ha): 80
- STEME weed control rating (Stellaria media; 0.060 kg/ha): 100
- STEME weed control rating (Stellaria media; 0.120 kg/ha): 100
- STEME weed control rating (Stellaria media; 0.240 kg/ha): 100
- VERPE weed control rating (Veronica persica; 0.030 kg/ha): 100
- VERPE weed control rating (Veronica persica; 0.060 kg/ha): 100
- VERPE weed control rating (Veronica persica; 0.120 kg/ha): 100
- VERPE weed control rating (Veronica persica; 0.240 kg/ha): 100
- PAPRH weed control rating (PAPRH; 0.030 kg/ha): 100
- PAPRH weed control rating (PAPRH; 0.060 kg/ha): 100
- PAPRH weed control rating (PAPRH; 0.120 kg/ha): 100
- PAPRH weed control rating (PAPRH; 0.240 kg/ha): 100
- VIOAR weed control rating (VIOAR; 0.030 kg/ha): 99
- VIOAR weed control rating (VIOAR; 0.060 kg/ha): 100
- VIOAR weed control rating (VIOAR; 0.120 kg/ha): 100
- VIOAR weed control rating (VIOAR; 0.240 kg/ha): 100
- TRZAWK rating (Selectivity) ([1]; 0.120 kg/ha): 1
- TRZAWK rating (Selectivity) ([1]; 0.240 kg/ha): 5
- TRZAWM rating (Selectivity) ([2]; 0.060 kg/ha): 1
- TRZAWM rating (Selectivity) ([2]; 0.120 kg/ha): 2
- TRZAWM rating (Selectivity) ([2]; 0.240 kg/ha): 5
- maximum tolerated dose in wheat / dose at which sufficiently selective in wheat (wheat; pre-emergence): 240 g/ha
- dose at which complete control of all the grasses and broadleaf weeds was achieved [3]: 120 g/ha

Structure (SMILES): COc1cnc(-c2ccc(C(F)(F)F)cc2)nc1Oc1ccnc(Cl)c1 [REF-8]
- ALOMY weed control rating (Alopecurus myosuroides; 0.030 kg/ha): 15
- ALOMY weed control rating (Alopecurus myosuroides; 0.060 kg/ha): 35
- ALOMY weed control rating (Alopecurus myosuroides; 0.120 kg/ha): 70
- ALOMY weed control rating (Alopecurus myosuroides; 0.240 kg/ha): 90
- APESV weed control rating (Apera spica-venti; 0.030 kg/ha): 100
- APESV weed control rating (Apera spica-venti; 0.060 kg/ha): 100
- APESV weed control rating (Apera spica-venti; 0.120 kg/ha): 100
- APESV weed control rating (Apera spica-venti; 0.240 kg/ha): 100
- GALAP weed control rating (Galium aparine; 0.030 kg/ha): 3
- GALAP weed control rating (Galium aparine; 0.120 kg/ha): 70
- GALAP weed control rating (Galium aparine; 0.240 kg/ha): 70
- LAMPU weed control rating (Lamium purpureum; 0.030 kg/ha): 98
- LAMPU weed control rating (Lamium purpureum; 0.060 kg/ha): 100
- LAMPU weed control rating (Lamium purpureum; 0.120 kg/ha): 100
- LAMPU weed control rating (Lamium purpureum; 0.240 kg/ha): 100
- LOLPE weed control rating (Lolium perenne; 0.030 kg/ha): 60
- LOLPE weed control rating (Lolium perenne; 0.060 kg/ha): 97
- LOLPE weed control rating (Lolium perenne; 0.120 kg/ha): 99
- LOLPE weed control rating (Lolium perenne; 0.240 kg/ha): 99
- MATIN weed control rating (Matricaria inodora; 0.030 kg/ha): 95
- MATIN weed control rating (Matricaria inodora; 0.060 kg/ha): 100
- MATIN weed control rating (Matricaria inodora; 0.120 kg/ha): 100
- MATIN weed control rating (Matricaria inodora; 0.240 kg/ha): 100
- POAAN weed control rating (Poa annua; 0.030 kg/ha): 100
- POAAN weed control rating (Poa annua; 0.060 kg/ha): 100
- POAAN weed control rating (Poa annua; 0.120 kg/ha): 100
- POAAN weed control rating (Poa annua; 0.240 kg/ha): 100
- SETVI weed control rating (Setaria viridis; 0.030 kg/ha): 60
- SETVI weed control rating (Setaria viridis; 0.060 kg/ha): 90
- SETVI weed control rating (Setaria viridis; 0.120 kg/ha): 90
- SETVI weed control rating (Setaria viridis; 0.240 kg/ha): 100
- STEME weed control rating (Stellaria media; 0.030 kg/ha): 35
- STEME weed control rating (Stellaria media; 0.060 kg/ha): 85
- STEME weed control rating (Stellaria media; 0.120 kg/ha): 100
- STEME weed control rating (Stellaria media; 0.240 kg/ha): 100
- VERPE weed control rating (Veronica persica; 0.030 kg/ha): 100
- VERPE weed control rating (Veronica persica; 0.060 kg/ha): 100
- VERPE weed control rating (Veronica persica; 0.120 kg/ha): 100
- VERPE weed control rating (Veronica persica; 0.240 kg/ha): 100
- PAPRH weed control rating (PAPRH; 0.030 kg/ha): 100
- PAPRH weed control rating (PAPRH; 0.060 kg/ha): 100
- PAPRH weed control rating (PAPRH; 0.120 kg/ha): 100
- PAPRH weed control rating (PAPRH; 0.240 kg/ha): 100
- VIOAR weed control rating (VIOAR; 0.030 kg/ha): 99
- VIOAR weed control rating (VIOAR; 0.060 kg/ha): 99
- VIOAR weed control rating (VIOAR; 0.120 kg/ha): 100
- VIOAR weed control rating (VIOAR; 0.240 kg/ha): 100
- TRZAWK rating (Selectivity) ([1]; 0.030 kg/ha): 1
- TRZAWK rating (Selectivity) ([1]; 0.060 kg/ha): 5
- TRZAWK rating (Selectivity) ([1]; 0.120 kg/ha): 12
- TRZAWK rating (Selectivity) ([1]; 0.240 kg/ha): 18
- TRZAWM rating (Selectivity) ([2]; 0.030 kg/ha): 1
- TRZAWM rating (Selectivity) ([2]; 0.060 kg/ha): 3
- TRZAWM rating (Selectivity) ([2]; 0.120 kg/ha): 15
- TRZAWM rating (Selectivity) ([2]; 0.240 kg/ha): 18
- maximum tolerated dose in wheat / dose at which sufficiently selective in wheat (wheat; in vivo): 120 g/ha
